Experimental data reported in patent US11358949B2, “Carbamate and urea compounds as multikinase inhibitors” (ANGEX PHARMACEUTICAL, INC., priority 2017, dated 2022).

Assays:
AXL = molecular target: T1, AXL (Homo sapiens, UniProt P30530); assay: HotSpot Kinase Assay, AXL
T1 sequence (P30530 26-894): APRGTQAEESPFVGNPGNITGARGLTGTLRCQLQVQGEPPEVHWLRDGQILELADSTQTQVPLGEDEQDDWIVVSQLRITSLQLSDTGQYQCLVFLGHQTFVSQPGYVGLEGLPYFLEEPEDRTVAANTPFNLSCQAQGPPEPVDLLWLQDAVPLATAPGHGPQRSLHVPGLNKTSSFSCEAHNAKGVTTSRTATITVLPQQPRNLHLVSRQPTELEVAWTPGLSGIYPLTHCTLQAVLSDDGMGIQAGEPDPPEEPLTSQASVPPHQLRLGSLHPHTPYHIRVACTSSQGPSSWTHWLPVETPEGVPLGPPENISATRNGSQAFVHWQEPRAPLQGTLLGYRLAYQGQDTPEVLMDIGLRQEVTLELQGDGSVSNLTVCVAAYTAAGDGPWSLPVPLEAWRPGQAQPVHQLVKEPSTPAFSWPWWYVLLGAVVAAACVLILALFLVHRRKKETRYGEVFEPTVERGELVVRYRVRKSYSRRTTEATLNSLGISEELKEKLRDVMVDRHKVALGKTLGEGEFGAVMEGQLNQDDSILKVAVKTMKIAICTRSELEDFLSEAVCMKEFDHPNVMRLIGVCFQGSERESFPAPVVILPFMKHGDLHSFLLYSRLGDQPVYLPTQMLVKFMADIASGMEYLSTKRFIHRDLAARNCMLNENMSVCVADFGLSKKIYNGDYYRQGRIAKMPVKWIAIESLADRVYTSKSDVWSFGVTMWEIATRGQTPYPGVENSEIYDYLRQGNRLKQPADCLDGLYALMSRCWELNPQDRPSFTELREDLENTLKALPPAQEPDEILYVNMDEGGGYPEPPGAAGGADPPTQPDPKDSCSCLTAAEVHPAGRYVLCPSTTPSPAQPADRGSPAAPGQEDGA
Protocol: (§1) Specifically, for each reaction, kinase and substrate were mixed in a pH 7.5 buffer containing 20 mM HEPES, 10 mM MgCl2, 1 mM EGTA [Ethylene glycol-bis(2-aminoethylether)-N,N,N′,N′-tetraacetic acid], 0.02% Brij35, 0.02 mg/mL BSA (Bovine Serum Albumin), 0.1 mM Na3VO4, 2 mM DTT, and 1% DMSO. Compounds were then added to each reaction mixture. After a 20-min incubation, ATP (Sigma-Aldrich) and [γ-^33P] ATP (PerkinElmer) were added at a final total concentration of 100 μM. Reactions were carried out at room temperature for 2 hours and spotted onto P81 ion exchange cellulose chromatography paper (Whatman). […] The percent remaining kinase activity relative to a vehicle-containing (DMSO) kinase reaction was calculated for each kinase/inhibitor pair. […] IC50 values were calculated using Prism 5 (GraphPad).

FMS = FMS (Homo sapiens, UniProt P07333); assay: HotSpot Kinase Assay, FMS
Protocol: as §1

DDR1 = DDR1 (Homo sapiens, UniProt Q08345); assay: HotSpot Kinase Assay, DDR1
Protocol: as §1

c-Kit = c-Kit (Homo sapiens, UniProt P10721); assay: HotSpot Kinase Assay, c-Kit
c-Kit, sequence (P10721 26-976): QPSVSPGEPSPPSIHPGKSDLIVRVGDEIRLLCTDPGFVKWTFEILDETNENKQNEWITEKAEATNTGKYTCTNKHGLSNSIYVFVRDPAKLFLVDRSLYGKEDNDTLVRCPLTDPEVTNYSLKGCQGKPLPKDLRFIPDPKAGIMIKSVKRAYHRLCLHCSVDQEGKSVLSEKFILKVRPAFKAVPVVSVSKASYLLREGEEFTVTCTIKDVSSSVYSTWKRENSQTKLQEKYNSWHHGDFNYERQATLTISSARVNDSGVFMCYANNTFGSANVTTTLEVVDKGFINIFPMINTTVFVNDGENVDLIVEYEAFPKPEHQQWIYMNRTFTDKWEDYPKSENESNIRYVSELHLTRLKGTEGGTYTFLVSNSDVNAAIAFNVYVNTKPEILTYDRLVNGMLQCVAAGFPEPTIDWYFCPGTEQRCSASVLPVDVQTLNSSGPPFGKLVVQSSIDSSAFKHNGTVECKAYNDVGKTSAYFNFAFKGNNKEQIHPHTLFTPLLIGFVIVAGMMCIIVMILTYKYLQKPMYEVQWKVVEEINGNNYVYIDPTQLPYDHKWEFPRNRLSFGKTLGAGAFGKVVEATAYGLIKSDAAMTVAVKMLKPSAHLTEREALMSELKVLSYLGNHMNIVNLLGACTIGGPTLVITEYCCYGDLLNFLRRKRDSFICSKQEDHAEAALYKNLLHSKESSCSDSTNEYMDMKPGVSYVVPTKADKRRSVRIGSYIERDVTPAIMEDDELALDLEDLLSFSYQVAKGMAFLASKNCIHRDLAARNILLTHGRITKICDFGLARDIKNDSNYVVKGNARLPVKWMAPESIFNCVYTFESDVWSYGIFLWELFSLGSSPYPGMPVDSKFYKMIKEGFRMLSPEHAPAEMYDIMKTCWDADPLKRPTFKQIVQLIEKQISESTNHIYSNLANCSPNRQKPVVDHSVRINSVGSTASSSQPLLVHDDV
Protocol: as §1

c-MER = molecular target: T2, c-MER (Homo sapiens, UniProt Q12866); assay: HotSpot Kinase Assay, c-MER
T2 sequence (Q12866 21-999): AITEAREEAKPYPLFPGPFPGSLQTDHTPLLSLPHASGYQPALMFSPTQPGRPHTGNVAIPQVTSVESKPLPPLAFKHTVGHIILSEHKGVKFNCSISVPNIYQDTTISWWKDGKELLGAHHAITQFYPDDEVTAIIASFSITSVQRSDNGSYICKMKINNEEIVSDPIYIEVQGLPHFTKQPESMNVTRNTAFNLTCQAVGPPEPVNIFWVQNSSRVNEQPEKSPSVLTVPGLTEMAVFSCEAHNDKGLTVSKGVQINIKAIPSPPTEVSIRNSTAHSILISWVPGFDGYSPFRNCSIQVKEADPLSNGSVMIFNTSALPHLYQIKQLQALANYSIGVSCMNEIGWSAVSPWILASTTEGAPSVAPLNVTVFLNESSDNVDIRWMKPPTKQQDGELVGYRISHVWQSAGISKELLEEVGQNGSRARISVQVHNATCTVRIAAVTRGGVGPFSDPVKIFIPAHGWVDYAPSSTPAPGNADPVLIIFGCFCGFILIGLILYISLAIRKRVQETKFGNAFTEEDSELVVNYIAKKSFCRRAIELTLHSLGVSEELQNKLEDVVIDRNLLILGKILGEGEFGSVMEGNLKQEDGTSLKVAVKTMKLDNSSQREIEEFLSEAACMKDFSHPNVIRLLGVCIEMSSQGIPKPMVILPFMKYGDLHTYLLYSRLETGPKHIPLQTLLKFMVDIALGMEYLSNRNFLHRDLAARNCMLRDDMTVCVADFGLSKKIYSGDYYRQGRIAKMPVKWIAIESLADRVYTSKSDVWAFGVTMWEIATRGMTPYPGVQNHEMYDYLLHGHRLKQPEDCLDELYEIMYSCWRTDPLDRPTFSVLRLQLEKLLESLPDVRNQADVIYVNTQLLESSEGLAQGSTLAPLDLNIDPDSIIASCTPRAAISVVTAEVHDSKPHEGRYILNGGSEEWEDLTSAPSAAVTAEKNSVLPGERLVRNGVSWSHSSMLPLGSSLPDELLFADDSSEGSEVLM

c-MET = c-MET (Homo sapiens, UniProt P08581); assay: HotSpot Kinase Assay, c-MET
c-MET, sequence (P08581 25-1390): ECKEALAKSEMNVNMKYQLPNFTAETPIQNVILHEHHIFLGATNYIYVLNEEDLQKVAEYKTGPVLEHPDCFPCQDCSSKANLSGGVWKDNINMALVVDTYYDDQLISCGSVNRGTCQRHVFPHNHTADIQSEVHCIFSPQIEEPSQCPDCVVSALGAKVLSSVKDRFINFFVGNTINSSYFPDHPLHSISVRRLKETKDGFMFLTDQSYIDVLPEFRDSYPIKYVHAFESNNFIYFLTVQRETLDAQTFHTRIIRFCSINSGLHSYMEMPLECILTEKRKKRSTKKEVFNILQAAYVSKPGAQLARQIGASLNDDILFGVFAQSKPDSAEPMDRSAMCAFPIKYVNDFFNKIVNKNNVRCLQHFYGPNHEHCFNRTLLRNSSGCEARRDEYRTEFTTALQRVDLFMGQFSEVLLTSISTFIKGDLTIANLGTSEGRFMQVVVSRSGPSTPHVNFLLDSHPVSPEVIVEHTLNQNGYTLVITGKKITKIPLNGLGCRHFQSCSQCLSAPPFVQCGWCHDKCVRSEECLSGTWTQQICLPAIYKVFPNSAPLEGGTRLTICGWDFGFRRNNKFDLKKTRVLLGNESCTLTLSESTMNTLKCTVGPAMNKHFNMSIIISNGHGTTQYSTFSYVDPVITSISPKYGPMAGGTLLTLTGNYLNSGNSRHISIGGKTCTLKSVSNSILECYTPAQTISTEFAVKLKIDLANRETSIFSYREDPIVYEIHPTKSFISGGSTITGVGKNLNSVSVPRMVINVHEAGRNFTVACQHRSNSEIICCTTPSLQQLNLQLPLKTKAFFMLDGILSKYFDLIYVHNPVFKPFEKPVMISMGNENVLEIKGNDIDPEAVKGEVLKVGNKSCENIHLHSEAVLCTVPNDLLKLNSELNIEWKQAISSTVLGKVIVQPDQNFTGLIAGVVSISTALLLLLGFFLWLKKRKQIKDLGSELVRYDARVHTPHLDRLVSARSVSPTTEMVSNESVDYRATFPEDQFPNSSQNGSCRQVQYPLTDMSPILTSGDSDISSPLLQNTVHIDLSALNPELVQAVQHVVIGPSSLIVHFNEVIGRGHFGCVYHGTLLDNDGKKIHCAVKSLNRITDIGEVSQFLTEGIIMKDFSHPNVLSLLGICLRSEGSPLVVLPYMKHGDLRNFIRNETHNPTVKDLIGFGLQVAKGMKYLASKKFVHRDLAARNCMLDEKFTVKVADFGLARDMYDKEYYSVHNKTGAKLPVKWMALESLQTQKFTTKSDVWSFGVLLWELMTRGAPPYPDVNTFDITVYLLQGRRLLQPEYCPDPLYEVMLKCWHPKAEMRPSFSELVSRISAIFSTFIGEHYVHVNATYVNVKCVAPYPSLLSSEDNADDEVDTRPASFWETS
Protocol: as §1

EPHA2 = EPHA2 (Homo sapiens, UniProt P29317); assay: HotSpot Kinase Assay, EPHA2
EPHA2, sequence (P29317 24-976): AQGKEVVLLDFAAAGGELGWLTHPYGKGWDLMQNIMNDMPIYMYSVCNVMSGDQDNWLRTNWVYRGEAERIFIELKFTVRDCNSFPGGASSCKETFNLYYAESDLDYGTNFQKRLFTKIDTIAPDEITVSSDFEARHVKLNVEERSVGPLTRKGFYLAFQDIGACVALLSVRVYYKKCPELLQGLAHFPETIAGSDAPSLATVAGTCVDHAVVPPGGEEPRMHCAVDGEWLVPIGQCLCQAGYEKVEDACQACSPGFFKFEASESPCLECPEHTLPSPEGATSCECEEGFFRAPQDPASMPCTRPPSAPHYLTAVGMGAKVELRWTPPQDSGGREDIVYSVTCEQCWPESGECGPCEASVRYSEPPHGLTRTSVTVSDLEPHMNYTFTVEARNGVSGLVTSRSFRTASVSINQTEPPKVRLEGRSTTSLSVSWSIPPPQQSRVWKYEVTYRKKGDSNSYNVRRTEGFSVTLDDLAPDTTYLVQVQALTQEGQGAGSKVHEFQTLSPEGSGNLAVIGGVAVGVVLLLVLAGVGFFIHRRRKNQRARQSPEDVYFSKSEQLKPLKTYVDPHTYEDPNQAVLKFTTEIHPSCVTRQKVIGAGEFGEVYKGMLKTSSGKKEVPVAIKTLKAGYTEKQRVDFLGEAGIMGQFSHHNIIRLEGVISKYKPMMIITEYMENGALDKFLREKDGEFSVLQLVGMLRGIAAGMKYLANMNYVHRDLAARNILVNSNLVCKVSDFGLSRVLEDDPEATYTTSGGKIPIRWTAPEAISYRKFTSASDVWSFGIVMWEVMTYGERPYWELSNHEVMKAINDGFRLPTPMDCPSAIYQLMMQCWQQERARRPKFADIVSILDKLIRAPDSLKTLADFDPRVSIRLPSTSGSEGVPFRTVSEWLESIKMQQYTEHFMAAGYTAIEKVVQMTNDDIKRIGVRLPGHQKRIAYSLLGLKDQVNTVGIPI
Protocol: as §1

LOK/STK10 = LOK/STK10 (Homo sapiens, UniProt O94804); assay: HotSpot Kinase Assay, LOK/STK10
LOK/STK10, sequence (O94804 whole entry): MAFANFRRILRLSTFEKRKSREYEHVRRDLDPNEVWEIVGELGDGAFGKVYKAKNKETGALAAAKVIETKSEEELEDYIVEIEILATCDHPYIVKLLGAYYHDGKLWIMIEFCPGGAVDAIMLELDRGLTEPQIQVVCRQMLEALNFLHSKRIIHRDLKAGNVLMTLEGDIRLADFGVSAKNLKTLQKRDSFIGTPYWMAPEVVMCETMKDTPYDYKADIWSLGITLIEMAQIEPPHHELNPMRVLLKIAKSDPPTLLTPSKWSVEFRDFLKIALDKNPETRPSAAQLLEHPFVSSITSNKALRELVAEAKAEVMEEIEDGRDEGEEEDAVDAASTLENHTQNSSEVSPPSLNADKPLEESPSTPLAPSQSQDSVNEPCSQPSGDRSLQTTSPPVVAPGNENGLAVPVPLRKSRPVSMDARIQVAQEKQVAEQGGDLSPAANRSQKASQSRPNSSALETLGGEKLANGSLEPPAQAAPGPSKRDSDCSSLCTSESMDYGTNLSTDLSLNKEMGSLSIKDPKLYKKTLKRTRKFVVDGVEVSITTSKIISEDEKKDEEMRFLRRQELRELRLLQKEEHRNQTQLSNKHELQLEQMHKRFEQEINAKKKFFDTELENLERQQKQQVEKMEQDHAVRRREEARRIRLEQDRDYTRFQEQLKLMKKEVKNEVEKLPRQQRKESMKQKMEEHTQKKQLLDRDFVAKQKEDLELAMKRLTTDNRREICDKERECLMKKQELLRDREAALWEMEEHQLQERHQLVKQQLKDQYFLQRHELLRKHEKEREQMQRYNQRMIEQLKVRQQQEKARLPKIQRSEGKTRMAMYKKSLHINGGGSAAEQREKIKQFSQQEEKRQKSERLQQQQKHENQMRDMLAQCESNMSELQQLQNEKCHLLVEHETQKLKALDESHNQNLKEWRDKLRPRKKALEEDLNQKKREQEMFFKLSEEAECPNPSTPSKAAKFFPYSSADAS
Protocol: as §1

TYRO3/SKY = molecular target: T3, TYRO3/SKY (Homo sapiens, UniProt Q06418); assay: HotSpot Kinase Assay, TYRO3/SKY
T3 sequence (Q06418 41-890): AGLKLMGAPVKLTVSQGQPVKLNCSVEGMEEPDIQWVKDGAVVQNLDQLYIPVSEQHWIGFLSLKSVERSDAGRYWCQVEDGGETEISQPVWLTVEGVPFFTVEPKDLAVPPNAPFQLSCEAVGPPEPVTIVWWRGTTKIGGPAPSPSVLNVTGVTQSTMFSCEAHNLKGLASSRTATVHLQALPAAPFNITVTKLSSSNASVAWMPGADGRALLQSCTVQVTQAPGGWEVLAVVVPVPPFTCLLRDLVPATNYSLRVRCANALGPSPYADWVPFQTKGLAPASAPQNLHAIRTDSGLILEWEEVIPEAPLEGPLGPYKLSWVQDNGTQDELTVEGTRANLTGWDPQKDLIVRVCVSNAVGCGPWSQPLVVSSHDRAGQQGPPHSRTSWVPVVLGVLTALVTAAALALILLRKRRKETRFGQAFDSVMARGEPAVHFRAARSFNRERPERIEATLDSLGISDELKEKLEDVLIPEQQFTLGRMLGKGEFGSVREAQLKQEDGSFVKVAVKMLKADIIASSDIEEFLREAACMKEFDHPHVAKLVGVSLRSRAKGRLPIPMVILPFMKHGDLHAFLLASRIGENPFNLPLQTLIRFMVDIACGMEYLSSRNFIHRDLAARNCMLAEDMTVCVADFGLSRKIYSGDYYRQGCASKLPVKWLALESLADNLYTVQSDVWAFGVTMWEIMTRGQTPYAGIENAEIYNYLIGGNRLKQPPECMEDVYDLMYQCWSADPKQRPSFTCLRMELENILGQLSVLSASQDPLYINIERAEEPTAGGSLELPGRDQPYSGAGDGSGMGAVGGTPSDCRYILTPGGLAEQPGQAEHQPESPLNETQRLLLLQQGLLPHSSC

KDR/VEGFR2 = KDR/VEGFR2 (Homo sapiens, UniProt P35968); assay: HotSpot Kinase Assay, KDR/VEGFR2
Protocol: as §1

Compound	IC50 (AXL) [nM]	IC50 (FMS) [nM]	IC50 (DDR1) [nM]	IC50 (c-Kit) [nM]	IC50 (c-MER) [nM]	IC50 (c-MET) [nM]	IC50 (EPHA2) [nM]	IC50 (LOK/STK10) [nM]	IC50 (TYRO3/SKY) [nM]	IC50 (KDR/VEGFR2) [nM]
COc1cc2c(Oc3ccc(NC(=O)C4(C(=O)Nc5ccc(F)cc5)CC4)cc3)ccnc2cc1N1CCNC1=O [Compound 10-2]	< 100	< 100	< 100	< 100	< 100	< 100	100 to 1000	100 to 1000	100 to 1000	100 to 1000
COc1cc2c(Oc3ccc(NC(=O)C4(C(=O)Nc5ccc(F)cc5)CC4)cc3)ccnc2cc1OC(=O)N1CCN(C)C[C@H]1C [Compound 1-11, 4-(4-(1-((4-fluorophenyl)carbamoyl)cyclopropane-1-carboxamido)phenoxy)-6-methoxyquinolin-7-yl (R)-2,4-dimethylpiperazine-1-carboxylate]	< 100	< 100	< 100	< 100	< 100	< 100	100 to 1000	100 to 1000	100 to 1000	> 1000
COc1cc2c(Oc3ccc(NC(=O)C4(C(=O)Nc5ccc(F)cc5)CC4)cc3)ccnc2cc1OC(=O)N1Cc2cn(S(C)(=O)=O)nc2C1 [Compound 1-16]	100 to 1000	> 1000	< 100	100 to 1000	100 to 1000	< 100	> 1000	> 1000	> 1000	> 1000
COc1cc2c(Oc3ccc(NC(=O)C4(C(=O)Nc5ccc(F)cc5)CC4)cc3)ccnc2cc1OC(=O)N1CCOCC1 [Compound 1-17]	100 to 1000	100 to 1000	< 100	< 100	< 100	< 100	100 to 1000	100 to 1000	> 1000	100 to 1000
COc1cc2c(Oc3ccc(NC(=O)C4(C(=O)Nc5ccc(F)cc5)CC4)cc3)ccnc2cc1OC(=O)N1[C@H](C)CNC[C@@H]1C [Compound 6-2]	< 100	100 to 1000	< 100	< 100	100 to 1000	100 to 1000	100 to 1000	100 to 1000	100 to 1000	100 to 1000
COc1cc2c(Oc3ccc(NC(=O)C4(C(=O)Nc5ccc(F)cc5)CC4)cc3)ccnc2cc1OC(=O)N1CCCC1 [Compound 1-14]	100 to 1000	> 1000	< 100	100 to 1000	100 to 1000	< 100	> 1000	> 1000	> 1000	> 1000
COc1cc2nccc(Oc3ccc(NC(=O)C4(C(=O)Nc5ccc(F)cc5)CC4)cc3)c2cc1OC(=O)N1CCNCC1(C)C [Compound 7-6]	< 100	100 to 1000	< 100	< 100	< 100	< 100	100 to 1000	100 to 1000	< 100	< 100
COc1cc2c(Oc3ccc(NC(=O)C4(C(=O)Nc5ccc(F)cc5)CC4)cc3)ccnc2cc1OC(=O)N1CCN(C)[C@H](C)C1 [Compound 2-2]	< 100	< 100	< 100	< 100	< 100	< 100	100 to 1000	100 to 1000	100 to 1000	100 to 1000
COc1cc2c(Oc3ccc(NC(=O)C4(C(=O)Nc5ccc(F)cc5)CC4)cc3F)ncnc2cc1OC(=O)N1CCNC[C@H]1C [Compound 9-5]	< 100	100 to 1000	< 100	100 to 1000	100 to 1000	< 100	100 to 1000	100 to 1000	100 to 1000	100 to 1000
COc1cc2c(Oc3ccc(NC(=O)C4(C(=O)Nc5ccc(F)cc5)CC4)cc3)ncnc2cc1OC(=O)N1CCNC[C@H]1C [Compound 8-5]	100 to 1000	100 to 1000	< 100	< 100	100 to 1000	100 to 1000	> 1000	> 1000	100 to 1000	> 1000
